Measured values taken from ChEMBL document CHEMBL3774309, “SAR Exploration Guided by LE and Fsp(3): Discovery of a Selective and Orally Efficacious RORγ Inhibitor” (ACS Med Chem Lett, 2016).
Blank lines part the entries; values can stand above or below the molecule they belong to.

Tests used:
[1] = molecular target: T1, Nuclear receptor ROR-gamma (Mus musculus, UniProt P51450); assay: Inhibition of mouse RORgamma ligand binding domain (Isoleucine 251 to Lysine 516) expressed in CHOK1 cells incubated for 2 days by Gal4 luciferase reporter gene assay; type: cell-based, CHO-K1
T1 sequence (P51450 whole entry): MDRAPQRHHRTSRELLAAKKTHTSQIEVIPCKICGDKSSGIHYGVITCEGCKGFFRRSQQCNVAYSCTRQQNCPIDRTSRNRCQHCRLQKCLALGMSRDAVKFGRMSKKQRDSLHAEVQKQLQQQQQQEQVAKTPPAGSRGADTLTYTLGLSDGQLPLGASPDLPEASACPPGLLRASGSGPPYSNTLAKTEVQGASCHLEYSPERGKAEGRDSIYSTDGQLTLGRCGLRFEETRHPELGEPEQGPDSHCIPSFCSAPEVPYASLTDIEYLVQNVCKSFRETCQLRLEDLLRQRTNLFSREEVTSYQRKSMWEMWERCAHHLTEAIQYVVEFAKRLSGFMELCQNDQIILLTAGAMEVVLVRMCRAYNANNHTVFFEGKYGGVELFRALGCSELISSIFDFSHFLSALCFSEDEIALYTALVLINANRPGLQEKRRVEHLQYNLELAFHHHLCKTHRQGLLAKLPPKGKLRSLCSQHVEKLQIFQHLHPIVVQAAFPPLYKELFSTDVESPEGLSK

[2] = Metabolic stability in liver S9 fraction (unknown origin) assessed as parent compound remaining incubated for 10 mins; type: ADME, subcellular; conditions: human, read-out: Stability
[3] = Metabolic stability in liver S9 fraction (unknown origin) assessed as parent compound remaining incubated for 60 mins; type: ADME, subcellular; conditions: human, read-out: Stability
[4] = molecular target: T2, Nuclear receptor ROR-gamma (Homo sapiens, UniProt P51449)
T2 sequence (P51449 whole entry): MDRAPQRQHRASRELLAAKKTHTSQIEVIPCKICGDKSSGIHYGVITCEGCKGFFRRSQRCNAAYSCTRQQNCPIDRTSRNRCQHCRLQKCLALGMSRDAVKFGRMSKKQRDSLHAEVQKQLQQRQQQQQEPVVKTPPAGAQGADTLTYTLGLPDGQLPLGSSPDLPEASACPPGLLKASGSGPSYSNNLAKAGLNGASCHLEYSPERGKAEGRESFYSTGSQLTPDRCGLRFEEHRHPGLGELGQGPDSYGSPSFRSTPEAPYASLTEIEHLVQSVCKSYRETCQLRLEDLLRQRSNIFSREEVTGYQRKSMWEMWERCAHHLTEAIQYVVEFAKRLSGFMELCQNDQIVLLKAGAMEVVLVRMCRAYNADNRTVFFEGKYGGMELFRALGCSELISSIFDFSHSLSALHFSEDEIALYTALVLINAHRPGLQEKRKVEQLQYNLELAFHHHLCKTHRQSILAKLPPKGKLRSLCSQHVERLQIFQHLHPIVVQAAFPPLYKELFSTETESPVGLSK
Description: Inhibition of human RORgamma ligand binding domain (Serine 253 to Lysine 518 residues) expressed in CHOK1 cells incubated for 2 days by Gal4 luciferase reporter gene assay

[5] = molecular target: T3, Cytochrome P450 3A4 (Homo sapiens, UniProt P08684); assay: Inhibition of CYP3A4 in human liver microsomes using midazolam as substrate preincubated with substrate for 5 mins followed by NADPH addition measured after 20 mins by HPLC analysis; type: ADME
[6] = molecular target: Cytochrome P450 2C9 (Homo sapiens, UniProt P11712); assay: Inhibition of CYP2C9 in human liver microsomes using diclofenac as substrate preincubated with substrate for 5 mins followed by NADPH addition measured after 20 mins by HPLC analysis; type: ADME
[7] = molecular target: Cytochrome P450 2D6 (Homo sapiens, UniProt P10635); assay: Inhibition of CYP2D6 in human liver microsomes using bufuralol as substrate preincubated with substrate for 5 mins followed by NADPH addition measured after 20 mins by HPLC analysis; type: ADME
[8] = molecular target: Cytochrome P450 1A2 (Homo sapiens, UniProt P05177); assay: Inhibition of CYP1A2 in human liver microsomes using ethoxyresorufin as substrate preincubated with substrate for 5 mins followed by NADPH addition measured after 20 mins by HPLC analysis; type: ADME
[9] = molecular target: Cytochrome P450 2A6 (Homo sapiens, UniProt P11509); assay: Inhibition of CYP2A6 in human liver microsomes using coumarin as substrate preincubated with substrate for 5 mins followed by NADPH addition measured after 20 mins by HPLC analysis; type: ADME
[10] = molecular target: Cytochrome P450 2C19 (Homo sapiens, UniProt P33261); assay: Inhibition of CYP2C19 in human liver microsomes using S-mephenytoin as substrate preincubated with substrate for 5 mins followed by NADPH addition measured after 20 mins by HPLC analysis; type: ADME
[11] = molecular target: Nuclear receptor ROR-alpha (Homo sapiens, UniProt P35398); assay: Inhibition of human RORalpha
[12] = molecular target: Steroidogenic factor 1 (Homo sapiens, UniProt Q13285); assay: Inhibition of human SF-1 receptor
[13] = molecular target: Nuclear receptor ROR-beta (Homo sapiens, UniProt Q92753); assay: Inhibition of human RORbeta
[14] = molecular target: Glucocorticoid receptor (Mus musculus, UniProt P06537); assay: Inhibition of mouse GR
[15] = molecular target: Retinoic acid receptor RXR-alpha (Homo sapiens, UniProt P19793); assay: Inhibition of human RXRalpha
[16] = molecular target: Vitamin D3 receptor (Homo sapiens, UniProt P11473); assay: Inhibition of human VDR
[17] = molecular target: Bile acid receptor (Homo sapiens, UniProt Q96RI1); assay: Inhibition of human FXR
[18] = molecular target: Oxysterols receptor LXR-alpha (Mus musculus, UniProt Q9Z0Y9); assay: Inhibition of mouse LXRalpha
[19] = molecular target: Peroxisome proliferator-activated receptor alpha (Homo sapiens, UniProt Q07869); assay: Inhibition of human PPARalpha
[20] = molecular target: Peroxisome proliferator-activated receptor gamma (Homo sapiens, UniProt P37231); assay: Inhibition of human PPARgamma
[21] = molecular target: Peroxisome proliferator-activated receptor delta (Homo sapiens, UniProt Q03181); assay: Inhibition of human PPARdelta
[22] = molecular target: Progesterone receptor (Homo sapiens, UniProt P06401); assay: Inhibition of human PR
[23] = molecular target: Retinoic acid receptor alpha (Homo sapiens, UniProt P10276); assay: Inhibition of human RARalpha
[24] = molecular target: Retinoic acid receptor beta (Homo sapiens, UniProt P10826); assay: Inhibition of human RARbeta
[25] = test system: Mus musculus; assay: Inhibition of MOG/PTX/CD3 antibody-induced IL-17 production in po dosed C57BL/6 mouse plasma adminstered 3 to 8 hrs before CD3 antibody injection by ELISA; type: functional, organism-based
[26] = molecular target: T2, Nuclear receptor ROR-gamma; assay: Inhibition of human GST-tagged RORgamma ligand binding domain (253 to 518 residues) expressed in sf9 cells using biotin-EEPSLLKKLLLAPA by FRET assay
[27] = Metabolic stability in human liver microsomes assessed as parent compound remaining incubated for 10 mins; type: ADME; conditions: read-out: Stability
[28] = molecular target: T3, Cytochrome P450 3A4; assay: Inhibition of human CYP3A4

T3 sequence (P08684 whole entry): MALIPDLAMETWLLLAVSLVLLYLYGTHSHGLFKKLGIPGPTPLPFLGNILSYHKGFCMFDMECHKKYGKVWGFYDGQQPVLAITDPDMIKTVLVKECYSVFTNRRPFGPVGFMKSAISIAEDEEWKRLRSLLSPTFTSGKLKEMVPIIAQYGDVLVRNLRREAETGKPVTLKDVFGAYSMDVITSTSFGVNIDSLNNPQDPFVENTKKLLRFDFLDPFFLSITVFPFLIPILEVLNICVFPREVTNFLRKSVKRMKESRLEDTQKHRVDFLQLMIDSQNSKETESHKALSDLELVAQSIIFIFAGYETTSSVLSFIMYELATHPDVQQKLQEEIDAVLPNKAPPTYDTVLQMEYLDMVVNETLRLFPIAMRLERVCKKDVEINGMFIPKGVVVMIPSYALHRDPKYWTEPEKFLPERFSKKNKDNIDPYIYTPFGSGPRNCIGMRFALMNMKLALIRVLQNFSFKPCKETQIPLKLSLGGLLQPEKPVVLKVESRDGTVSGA
Vitamin D3 receptor, sequence (P11473 whole entry): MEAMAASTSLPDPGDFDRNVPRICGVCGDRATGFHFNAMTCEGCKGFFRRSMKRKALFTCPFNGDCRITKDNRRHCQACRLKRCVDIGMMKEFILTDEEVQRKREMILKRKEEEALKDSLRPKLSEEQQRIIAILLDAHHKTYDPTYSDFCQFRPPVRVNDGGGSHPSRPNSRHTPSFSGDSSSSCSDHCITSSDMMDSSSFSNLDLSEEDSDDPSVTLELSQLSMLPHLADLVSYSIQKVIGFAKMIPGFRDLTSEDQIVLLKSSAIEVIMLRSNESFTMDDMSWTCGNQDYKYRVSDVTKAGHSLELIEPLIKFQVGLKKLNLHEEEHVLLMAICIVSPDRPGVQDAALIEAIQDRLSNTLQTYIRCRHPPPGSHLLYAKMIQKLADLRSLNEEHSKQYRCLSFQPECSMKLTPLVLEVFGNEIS
Peroxisome proliferator-activated receptor delta, sequence (Q03181 whole entry): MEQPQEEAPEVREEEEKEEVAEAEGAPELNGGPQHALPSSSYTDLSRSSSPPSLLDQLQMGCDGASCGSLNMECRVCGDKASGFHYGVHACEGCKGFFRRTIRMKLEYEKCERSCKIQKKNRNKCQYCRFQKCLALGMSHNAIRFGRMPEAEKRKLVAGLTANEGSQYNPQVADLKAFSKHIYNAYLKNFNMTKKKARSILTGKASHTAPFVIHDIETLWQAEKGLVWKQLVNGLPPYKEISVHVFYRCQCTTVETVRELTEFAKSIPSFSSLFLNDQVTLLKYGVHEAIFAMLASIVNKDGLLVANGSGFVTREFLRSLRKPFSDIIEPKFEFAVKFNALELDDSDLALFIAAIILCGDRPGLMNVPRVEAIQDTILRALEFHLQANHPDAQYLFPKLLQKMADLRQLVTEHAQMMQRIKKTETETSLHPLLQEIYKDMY
Oxysterols receptor LXR-alpha, sequence (Q9Z0Y9 whole entry): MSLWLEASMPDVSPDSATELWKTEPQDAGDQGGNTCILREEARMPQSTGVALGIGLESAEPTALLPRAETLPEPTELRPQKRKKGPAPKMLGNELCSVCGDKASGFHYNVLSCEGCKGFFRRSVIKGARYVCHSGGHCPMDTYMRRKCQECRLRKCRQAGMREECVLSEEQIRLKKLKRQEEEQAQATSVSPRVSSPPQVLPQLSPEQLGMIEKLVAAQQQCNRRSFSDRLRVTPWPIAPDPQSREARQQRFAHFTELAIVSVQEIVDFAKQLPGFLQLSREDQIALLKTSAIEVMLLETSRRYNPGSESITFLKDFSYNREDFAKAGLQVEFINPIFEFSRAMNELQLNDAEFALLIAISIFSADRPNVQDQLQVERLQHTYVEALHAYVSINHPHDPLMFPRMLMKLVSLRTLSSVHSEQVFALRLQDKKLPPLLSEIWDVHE
Cytochrome P450 2A6, sequence (P11509 whole entry): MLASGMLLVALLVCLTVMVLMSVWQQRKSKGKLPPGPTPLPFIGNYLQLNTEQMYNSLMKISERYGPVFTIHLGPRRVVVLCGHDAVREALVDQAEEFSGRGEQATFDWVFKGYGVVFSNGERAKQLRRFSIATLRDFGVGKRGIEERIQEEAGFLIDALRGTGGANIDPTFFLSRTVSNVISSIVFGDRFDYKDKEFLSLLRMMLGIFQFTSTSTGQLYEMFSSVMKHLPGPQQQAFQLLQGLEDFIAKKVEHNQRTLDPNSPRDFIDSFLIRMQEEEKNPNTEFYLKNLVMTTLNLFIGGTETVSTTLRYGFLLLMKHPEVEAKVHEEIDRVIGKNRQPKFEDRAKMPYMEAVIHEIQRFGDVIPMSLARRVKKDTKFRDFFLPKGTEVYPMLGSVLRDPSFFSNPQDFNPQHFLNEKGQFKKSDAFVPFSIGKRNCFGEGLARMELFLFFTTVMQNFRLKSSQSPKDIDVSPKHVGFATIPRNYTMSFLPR
Nuclear receptor ROR-alpha, sequence (P35398 whole entry): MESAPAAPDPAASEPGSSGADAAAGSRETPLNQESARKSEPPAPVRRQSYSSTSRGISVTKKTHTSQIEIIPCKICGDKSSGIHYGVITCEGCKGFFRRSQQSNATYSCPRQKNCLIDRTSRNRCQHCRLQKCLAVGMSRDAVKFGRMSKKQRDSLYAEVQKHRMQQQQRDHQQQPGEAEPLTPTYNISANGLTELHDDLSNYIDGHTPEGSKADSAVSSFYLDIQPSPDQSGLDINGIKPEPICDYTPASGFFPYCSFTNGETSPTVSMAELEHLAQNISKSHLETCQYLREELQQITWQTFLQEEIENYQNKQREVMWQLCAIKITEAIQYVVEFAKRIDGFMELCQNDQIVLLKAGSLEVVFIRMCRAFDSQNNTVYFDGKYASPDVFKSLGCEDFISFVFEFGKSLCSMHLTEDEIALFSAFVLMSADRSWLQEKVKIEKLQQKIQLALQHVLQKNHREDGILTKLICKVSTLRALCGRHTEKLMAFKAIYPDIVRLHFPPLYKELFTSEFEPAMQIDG
Peroxisome proliferator-activated receptor gamma, sequence (P37231 whole entry): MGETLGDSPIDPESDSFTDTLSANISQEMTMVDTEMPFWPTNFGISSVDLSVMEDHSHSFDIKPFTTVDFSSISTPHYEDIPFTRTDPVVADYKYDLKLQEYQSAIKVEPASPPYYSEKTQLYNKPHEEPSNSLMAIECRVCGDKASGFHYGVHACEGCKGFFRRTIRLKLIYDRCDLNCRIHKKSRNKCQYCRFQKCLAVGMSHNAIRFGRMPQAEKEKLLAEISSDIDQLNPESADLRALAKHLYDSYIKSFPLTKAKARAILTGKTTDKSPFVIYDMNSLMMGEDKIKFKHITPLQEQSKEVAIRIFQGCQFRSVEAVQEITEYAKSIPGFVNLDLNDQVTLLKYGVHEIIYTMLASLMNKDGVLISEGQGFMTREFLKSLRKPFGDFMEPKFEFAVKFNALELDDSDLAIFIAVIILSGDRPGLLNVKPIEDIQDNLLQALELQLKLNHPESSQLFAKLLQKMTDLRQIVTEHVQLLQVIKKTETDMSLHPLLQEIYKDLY
Cytochrome P450 2C19, sequence (P33261 whole entry): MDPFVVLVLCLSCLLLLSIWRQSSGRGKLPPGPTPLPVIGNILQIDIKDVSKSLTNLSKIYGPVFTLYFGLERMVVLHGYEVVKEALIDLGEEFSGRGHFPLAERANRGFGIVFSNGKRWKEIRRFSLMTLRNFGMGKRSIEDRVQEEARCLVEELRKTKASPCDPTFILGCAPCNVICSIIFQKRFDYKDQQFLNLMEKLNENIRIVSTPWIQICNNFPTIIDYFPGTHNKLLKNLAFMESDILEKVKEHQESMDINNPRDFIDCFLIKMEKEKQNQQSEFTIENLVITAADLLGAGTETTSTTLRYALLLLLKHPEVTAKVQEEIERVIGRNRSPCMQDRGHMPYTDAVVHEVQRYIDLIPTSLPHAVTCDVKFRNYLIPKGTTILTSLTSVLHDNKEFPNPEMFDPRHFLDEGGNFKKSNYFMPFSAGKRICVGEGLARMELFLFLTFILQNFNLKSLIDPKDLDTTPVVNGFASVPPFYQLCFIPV
Bile acid receptor, sequence (Q96RI1 whole entry): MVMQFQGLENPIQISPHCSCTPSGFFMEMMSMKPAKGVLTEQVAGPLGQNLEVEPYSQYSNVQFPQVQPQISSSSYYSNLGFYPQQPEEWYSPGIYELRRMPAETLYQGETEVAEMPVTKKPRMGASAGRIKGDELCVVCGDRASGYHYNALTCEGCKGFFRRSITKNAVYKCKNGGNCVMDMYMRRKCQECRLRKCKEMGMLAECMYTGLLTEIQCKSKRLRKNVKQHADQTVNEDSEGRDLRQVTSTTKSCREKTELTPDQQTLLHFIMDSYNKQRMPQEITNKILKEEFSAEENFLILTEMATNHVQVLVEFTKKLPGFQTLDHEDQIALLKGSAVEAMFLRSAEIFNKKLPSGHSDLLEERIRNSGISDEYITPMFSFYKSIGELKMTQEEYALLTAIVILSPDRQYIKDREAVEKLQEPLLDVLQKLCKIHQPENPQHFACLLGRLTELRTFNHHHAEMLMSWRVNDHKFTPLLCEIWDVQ
Retinoic acid receptor alpha, sequence (P10276 whole entry): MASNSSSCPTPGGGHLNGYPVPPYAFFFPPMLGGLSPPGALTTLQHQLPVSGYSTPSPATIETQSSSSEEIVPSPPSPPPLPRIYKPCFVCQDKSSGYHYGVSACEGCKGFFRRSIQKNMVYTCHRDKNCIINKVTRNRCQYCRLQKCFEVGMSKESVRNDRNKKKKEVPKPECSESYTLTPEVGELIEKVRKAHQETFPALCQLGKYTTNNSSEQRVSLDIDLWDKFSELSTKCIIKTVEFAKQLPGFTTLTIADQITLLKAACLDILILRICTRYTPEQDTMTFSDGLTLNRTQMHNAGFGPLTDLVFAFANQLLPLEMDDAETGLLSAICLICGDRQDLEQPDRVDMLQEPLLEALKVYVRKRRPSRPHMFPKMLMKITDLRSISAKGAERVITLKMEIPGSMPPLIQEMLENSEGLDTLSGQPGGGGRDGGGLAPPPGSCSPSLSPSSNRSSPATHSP

EC50 [1]: 1400 nM
remaining at 10 min [2]: 63%
remaining at 1 h [3]: 27%
EC50 [4]: 3900 nM
SMILES: CCC(C)CCc1nnc(CCC(=O)Nc2ccc(C)cc2C)n1C1CC1 (racemic)

EC50 [1]: 830 nM
EC50 [4]: 6700 nM
SMILES: CCn1c(CCC(=O)Nc2cccc3ccccc23)nnc1CCC(C)(C)C

EC50 [1]: 670 nM
EC50 [4]: 1300 nM
SMILES: CCn1c(CC(C)C(=O)Nc2cccc3ccccc23)nnc1C1Cc2ccccc2C1 (racemic)

EC50 [1]: 54 nM
remaining at 10 min [2]: 83%
remaining at 1 h [3]: 31%
EC50 [4]: 450 nM
SMILES: Cc1ccc(NC(=O)CCc2nnc(-c3cc(CC(C)C)on3)n2C2CC2)c(C)c1

remaining at 10 min [2]: 86%
remaining at 1 h [3]: 61%
IC50 [5]: > 50000 nM
inhibition (INH) ([5]; human, microsomes, 20 min, TDE = time-dependent effect): tde
IC50 [6]: > 50000 nM
IC50 [7]: > 50000 nM
IC50 [8]: > 50000 nM
IC50 [9]: > 50000 nM
IC50 [10]: > 50000 nM
EC50 [11]: > 20000 nM
EC50 [12]: > 20000 nM
EC50 [13]: > 20000 nM
EC50 [14]: > 20000 nM
EC50 [15]: > 20000 nM
EC50 [16]: > 20000 nM
EC50 [17]: > 20000 nM
EC50 [18]: > 20000 nM
EC50 [19]: > 20000 nM
EC50 [20]: > 20000 nM
EC50 [21]: > 20000 nM
EC50 [22]: > 20000 nM
EC50 [23]: > 20000 nM
EC50 [24]: > 20000 nM
SMILES: CC(=O)N1C[C@H](C(=O)Nc2ccc(C)cc2C)[C@@H](c2nnc([C@H]3C[C@@H](CC(C)C)C3)n2C2CC2)C1
inhibition [25]: Dose-dependent effect

EC50 [1]: 4500 nM
EC50 [4]: > 20000 nM
SMILES: CCn1c(CCC(=O)Nc2cccc3ccccc23)nnc1C1CCCCC1

EC50 [1]: 300 nM
EC50 [4]: 820 nM
SMILES: CCn1c(CCC(=O)Nc2cccc3ccccc23)nnc1CCC1CCCCC1

EC50 [1]: 450 nM
remaining at 10 min [2]: 55%
remaining at 1 h [3]: 23%
EC50 [4]: 980 nM
SMILES: Cc1ccc(NC(=O)CCc2nnc(CCC3CCCCC3)n2C2CC2)c(C)c1

EC50 [1]: 53 nM
remaining at 10 min [2]: 68%
remaining at 1 h [3]: 31%
EC50 [4]: 400 nM
SMILES: Cc1ccc(NC(=O)CCc2nnc([C@H]3C[C@H](CC(C)C)C3)n2C2CC2)c(C)c1

EC50 [1]: 400 nM
EC50 [4]: 1000 nM
SMILES: CCn1c(CCC(=O)Nc2cccc3ccccc23)nnc1C1Cc2ccccc2C1

EC50 [1]: 640 nM
EC50 [4]: 960 nM
SMILES: CCn1c(CCC(=O)Nc2cccc(Cl)c2C)nnc1CCC1CCCCC1

EC50 [1]: 290 nM
remaining at 10 min [2]: 53%
remaining at 1 h [3]: 21%
EC50 [4]: 230 nM
SMILES: Cc1ccc(NC(=O)[C@H]2CN(C)CC[C@@H]2c2nnc([C@H]3C[C@@H](CC(C)C)C3)n2C2CC2)c(C)c1 (racemic)

EC50 [1]: 700 nM
EC50 [26]: 850 nM
remaining at 10 min [27]: 18%
IC50 [28]: 4000 nM
EC50 [4]: 1700 nM
SMILES: CCn1c(SCC(=O)Nc2cccc3ccccc23)nnc1C1Cc2ccccc2C1

EC50 [1]: 610 nM
remaining at 10 min [2]: 67%
remaining at 1 h [3]: 27%
EC50 [4]: 1700 nM
SMILES: Cc1ccc(NC(=O)CCc2nnc(CCCC(C)C)n2C2CC2)c(C)c1
